This is an account of results in the NIST ThermoML archive (doi:10.1016/j.jct.2019.01.015).

Numbers after ± are expanded uncertainties.

The nature of data set [1]: Molar enthalpy of transition or fusion. The note with it: Crystal; DSC.
For data set [2] the following is noted: Crystal; DSC.

`C=NCC#N` [methyleneaminoacetonitrile]: the “Molar enthalpy of transition or fusion” value in data set [1] was determined as 2.55 ± 0.0884 kcal/mol. Also, in data set [2], the Triple point temperature is recorded as 402.15 ± 1 K.
